The text below walks through data of patent publication US4806540A, “1-heteroaryl-4-aryl-pyrazole microbicides” (Bayer Aktiengesellschaft, priority 1985, dated 1989).

≈ marks a conversion by molar mass, not a printed value.

In assay [1] the test system is fungi: Alternaria tenuis, Aspergillus niger, Aureobasidium pullulans, Chaetomium globosum, Cladosporium cladoporioides, Lentinus tigrinus, Penicillium glaucum …. The assay can be described thus: Minimum inhibitory concentrations (MIC), activity against fungi (agar). Format: cell-based. The settings on record: agar from beer wort and peptone; 28° C., 60 to 70% humidity, 2 weeks; 0.1 mg/l to 5,000 mg/l. As for the experimental part: Active compounds according to the invention are added in concentrations of 0.1 mg/l to 5,000 mg/l to an agar prepared from beer wort and peptone. After storage at 28° C. and 60 to 70% relative atmospheric humidity for 2 weeks, the MIC is determined. […] Good actions of the listed test organisms are shown, for example, by the compounds according to Preparation Examples 2, 6a, 12a, 9b, 24 and 25: […]

Assay [2] relates to Pyricularia oryzae. The format is in vivo, Pyricularia oryzae (on young rice plants). The settings on record: protective, rice plants; evaluation 4 days after inoculation.
Assay [3] relates to bacteria. The assay can be described thus: Action against bacteria (test organisms of Table C), result in words. The format is cell-based, Escherichia coli, Staphylococcus aureus. The settings on record: 1 to 5,000 ppm; agar containing broth, 28° C., 2 weeks. On the procedure:
(§1) The nutrient medium is then infected with in each case the test organisms listed in Table C and the infected medium is kept at 28° C. and 60 to 70% relative atmospheric humidity for 2 weeks. […] The compounds according to Preparation Examples 2, 6a, 12a, 9b, 13 and 14 show good actions.

Assay [4] relates to Escherichia coli. The assay can be described thus: Action against bacteria, MIC (agar). Format: cell-based. The settings on record: 336 h, agar containing broth, 28° C., 2 weeks. As for the experimental part:
as §1

Assay [5] deals with Staphylococcus aureus. The assay can be described thus: Action against bacteria, MIC (agar). The format is cell-based. The settings on record: 336 h, agar containing broth, 28° C., 2 weeks. On the procedure:
as §1

The term MIC denotes the lowest concentration found to suppress growth. Read a low MIC as greater potency.

Consider `CC(=O)n1cc(-c2ccccc2)c(=O)n1-c1ncccn1` [Example 2, 1-Pyrimid-2-yl-2-acetyl-4-phenyl-pyrazol-5-one], for which the “action against the listed test organisms (fungi)” value in assay [1] is on record as “Good actions”. Besides, in assay [2], the “activity compared with the prior art” value is given as “clearly superior activity compared with the prior art”. Further, in assay [3], the action against bacteria entry was “good actions”. Also, the MIC was determined as 750 µg/mL (≈ 2680 µM) in assay [4] and 1000 µg/mL (≈ 3570 µM) in assay [5].

Turning to `O=c1c(-c2ccccc2)cn(S(=O)(=O)c2ccccc2)n1-c1ccccn1` [Example 25], the “action against the listed test organisms (fungi)” value in assay [1] was “Good actions”. Moreover, the MIC in assay [4] is 1000 µg/mL (≈ 2650 µM); in assay [5], 20 µg/mL (≈ 53 µM).

As for `CS(=O)(=O)n1cc(-c2ccccc2)c(=O)n1-c1ccccn1` [Example 24, 1-pyrid-2-yl-2-methylsulphonyl-4-phenyl-pyrazolin-5-one], the minimum inhibitory concentration (MIC) in assay [4] and in assay [5] was 50 µg/mL (≈ 159 µM) in each case.

On to “mixture of 1-pyrid-2-yl-2-acetyl-4-phenyl-pyrazolin-5-one and 1-pyrid-2-yl-4-phenyl-5-acetoxypyrazole [Example 1]”, for which, in assay [2], the “activity compared with the prior art” value is reported as “clearly superior activity compared with the prior art”.
